Source: paper PMC7576996, “Antiparasitic Behavior of Trifluoromethylated Pyrazole 2-Amino-1,3,4-thiadiazole Hybrids and Their Analogues: Synthesis and Structure-Activity Relationship” (Frontiers in Pharmacology, 2020)

Assays:
[1] = system: promastigote form of Leishmania amazonensis; assay: Antiproliferative assay, promastigote form of Leishmania amazonensis (XTT, 72 h); format: cell-based; details: for SI L-M, selectivity index (Macrophages CC50/L. amazonensis IC50): J774A1 vs promastigotes; for SI L-E, selectivity index (Epithelial CC50/L. amazonensis IC50): LLCMK2 vs promastigotes; for IC50: Leishmania amazonensis, promastigote form, 72 h, mean ± standard deviation, read-out: L. amazonensis IC50
Protocol: (§1) All the novel trifluoromethylated pyrazoles derivatives 2a–f, 3a–f, and 4a–f were evaluated against the promastigote form of L. amazonensis and the epimastigote form of T. cruzi. The results are reported as the concentration causing a 50% inhibition in cell growth (IC50). Additionally, the toxicity of compounds was evaluated against two different cell lines: epithelial cell LLCMK2 and macrophages J774A1. The antiproliferative and cytotoxic activities are shown in Table 2 , as well as the calculated selectivity index (SI).
(§2) 2.4. Antiproliferative activity
(§3) Promastigotes forms of Leishmania amazonensis (strain WHOM/ BR/75/JOSEFA) were
(§4) cultured in Warren medium (brain heart infusion, hemin, and folic acid; pH 7.4) supplemented with
(§5) 10% fetal bovine serum (FBS) at 25 °C. Epimastigote forms of Trypanosoma cruzi (Y strain) were
(§6) cultured in LIT medium (liver infusion tryptose; hemim, and folic acid; pH 7.4) supplemented with
(§7) Cytotoxicity activity was determined in LLCMK2 (epithelial cells of kidney of Macaca
(§8) mulatta) cells and J774A1 macrophages. LLCMK2 (epithelial cells of kidney of Macaca mulatta) cells
(§9) were cultured in Dulbecco’s modified Eagle’s medium (DMEM, pH 7.2) supplemented with 10% FBS
(§10) at 37 °C in a 5% CO2 atmosphere. J774A1 macrophages were cultured in RPMI-1640 (pH 7.2) medium
(§11) supplemented with 10% FBS at 37 °C in a 5% CO2 atmosphere.
(§12) 2.4.2. Dilution of compounds
(§13) Stock solutions of the compounds were prepared in DMSO and then diluted in the respective
(§14) medium. The groups (controls and treated) were tested with DMSO concentrations below 1%, with
(§15) 2.4.3. Antiproliferative assay
(§16) Promastigote forms (1 × 10^6 parasites/mL) were cultured in 96-well plates in the presence and
(§17) absence of different concentrations of compounds diluted in Warren medium supplemented with 10%
(§18) FBS and incubated for 72h. Epimastigote forms (1 × 10^6 parasites/mL) were cultured in 96 -well plates
(§19) in the presence and absence of different concentrations of compounds diluted in LIT medium
(§20) supplemented with 10% FBS and incubated for 96h. After treatment, the parasites were incu bated with
(§21) a solution of 2,3 -bis (2 -methoxy -4-nitro -5-sulfophenyl) -2H-tetrazolium -5-carboxanilide (XTT; 0.5
(§22) mg/mL) and phenazine methanesulfonate activator (PMS; 0.06 mg/mL) in PBS for 4h. Then, the
(§23) absorbance was read in a microplate reader (Bio Tek - Power Wave XS) at 450 nm. The percentage of
(§24) viable parasites was calculated in relation to the control in order to determine the concentration that
(§25) inhibits 50% of the protozoa (IC 50).
(§26) 2.4.4. Cytotoxicity assay
(§27) LLCMK2 cells (2.5 × 10^5 cells/mL) suspension was prepared in DMEM medium supplemented
(§28) with 10% FBS and added to 96-well plates. Then, the plates were incubated at 37 °C in a
(§29) CO2 atmosphere for 24h to obtain confluent cell growth. After incubation, cells were treated or not
(§30) with different concentrations of compounds diluted in DMEM for 72 h. Macrophage (5 × 10^5 cells/mL)
(§31) suspension was prepared in RPMI-1640 medium supplemented with 10% FBS and added to 96-well
(§32) plates. Then, the plates were incubated at 37 °C in a CO2 atmosphere for 24h to obtain confluent cell
(§33) growth. After incubation, cells were treated or not with different concentrations of compounds diluted
(§34) in RPMI-1640 for 48h. After treatment, medium was removed and cells were incubated with MTT (2
(§35) mg/mL) for 4h. Then, DMSO was added for solubilization of the formazan and analyzed with a reading

[2] = Cytotoxicity assay in J774A1 macrophages (MTT, 48 h); format: cell-based; details: mouse, pH 7.2, J774A1, 50% inhibition of growth
Protocol: as §1
(§36) 2.4. Antiproliferative activity […]
as §7, §8, §9, §10, §11, §12, §13, §14
(§37) 2.4.3. Antiproliferative assay […]
as §26, §27, §28, §29, §30, §31, §32, §33, §34, §35
(§38) microplate reader (BIO-TEK PowerWave XS spectrophotometer) at 392 nm. The percentage of viable
(§39) cells was calculated in relation to the control to determine the cytotoxic concentration to 50% of the […]

[3] = Cytotoxicity assay in LLCMK2 epithelial cells (MTT, 72 h); format: cell-based; details: Macaca mulatta, LLCMK2 kidney epithelial cells, pH 7.2, LLCMK2, 50% inhibition of growth
Protocol: as §1, §36, §7, §8, §9, §10, §11, §12, §13, §14, §37, §26, §27, §28, §29, §30, §31, §32, §33, §34, §35, §38, §39

[4] = system: epimastigote form of Trypanosoma cruzi; assay: Antiproliferative assay, epimastigote form of Trypanosoma cruzi (XTT, 96 h); format: cell-based; details: for SI T-M, selectivity index (Macrophages CC50/T. cruzi IC50): J774A1 vs epimastigotes; for SI T-E, selectivity index (Epithelial CC50/T. cruzi IC50): LLCMK2 vs epimastigotes; for IC50: Trypanosoma cruzi, epimastigote form, 96 h, mean ± standard deviation, read-out: T. cruzi IC50
Protocol: as §1, §2, §3, §4, §5, §6, §7, §8, §9, §10, §11, §12, §13, §14, §15, §16, §17, §18, §19, §20, §21, §22, §23, §24, §25, §26, §27, §28, §29, §30, §31, §32, §33, §34, §35

SMILES: NC(=S)NN=Cc1c(C(F)(F)F)nn(-c2ccccc2)c1-c1ccc([N+](=O)[O-])cc1 [2a, 4-[(2-carbamothioyl-hydrazinylidene)methyl]-3-trifluoromethyl-5-(4-nitrophenyl)-1-phenyl-1H-pyrazole]
- SI L-M, selectivity index (Macrophages CC50/L. amazonensis IC50) [1]: 9.10
- SI L-E, selectivity index (Epithelial CC50/L. amazonensis IC50) [1]: 11.33
- IC50 [1]: 26.7 ± 1.4 µM
- melting point: 226.5 °C
- CC50 at 48 h [2]: 243 ± 3.6 µM
- CC50 at 72 h [3]: 303 ± 5.8 µM
- SI T-M, selectivity index (Macrophages CC50/T. cruzi IC50) [4]: 5.32
- SI T-E, selectivity index (Epithelial CC50/T. cruzi IC50) [4]: 6.62
- IC50 [4]: 45.7 ± 5 µM

SMILES: NC(=S)NN=Cc1c(C(F)(F)F)nn(-c2ccccc2)c1-c1ccc(F)cc1 [2b, 4-[(2-carbamothioyl-hydrazinylidene)methyl]-3-trifluoromethyl-5-(4-fluorophenyl)-1-phenyl-1H-pyrazole]
- SI L-M, selectivity index (Macrophages CC50/L. amazonensis IC50) [1]: 4.09
- SI L-E, selectivity index (Epithelial CC50/L. amazonensis IC50) [1]: 6.97
- IC50 [1]: 49.6 ± 3.8 µM
- melting point: 221.18 °C
- CC50 at 48 h [2]: 203 ± 5.9 µM
- CC50 at 72 h [3]: 345.7 ± 2.6 µM
- SI T-M, selectivity index (Macrophages CC50/T. cruzi IC50) [4]: 2.92
- SI T-E, selectivity index (Epithelial CC50/T. cruzi IC50) [4]: 4.99
- IC50 [4]: 69.3 ± 2.9 µM

SMILES: NC(=S)NN=Cc1c(C(F)(F)F)nn(-c2ccccc2)c1-c1ccc(Cl)cc1 [2c, 4-[(2-carbamothioyl-hydrazinylidene)methyl]-5-(4-chlorophenyl)-3-trifluoromethyl-1-phenyl-1H-pyrazole]
- SI L-M, selectivity index (Macrophages CC50/L. amazonensis IC50) [1]: 9.02
- SI L-E, selectivity index (Epithelial CC50/L. amazonensis IC50) [1]: 8.45
- IC50 [1]: 44.6 ± 6.2 µM
- melting point: 225.37 °C
- CC50 at 48 h [2]: 402 ± 8.3 µM
- CC50 at 72 h [3]: 377 ± 5 µM
- SI T-M, selectivity index (Macrophages CC50/T. cruzi IC50) [4]: 8.17
- SI T-E, selectivity index (Epithelial CC50/T. cruzi IC50) [4]: 7.66
- IC50 [4]: 49.2 ± 3.1 µM

SMILES: NC(=S)NN=Cc1c(C(F)(F)F)nn(-c2ccccc2)c1-c1ccc(Br)cc1 [2d, 5-(4-bromophenyl)-4-[(2-carbamothioyl-hydrazinylidene)methyl]-3-trifluoromethyl-1-phenyl-1H-pyrazole]
- SI L-M, selectivity index (Macrophages CC50/L. amazonensis IC50) [1]: 8.98
- SI L-E, selectivity index (Epithelial CC50/L. amazonensis IC50) [1]: 7.85
- IC50 [1]: 18.9 ± 1.1 µM
- CC50 at 48 h [2]: 170 ± 7.2 µM
- CC50 at 72 h [3]: 148 ± 6.9 µM
- SI T-M, selectivity index (Macrophages CC50/T. cruzi IC50) [4]: 5.60
- SI T-E, selectivity index (Epithelial CC50/T. cruzi IC50) [4]: 4.89
- IC50 [4]: 30.3 ± 5.2 µM

SMILES: NC(=S)NN=Cc1c(C(F)(F)F)nn(-c2ccccc2)c1-c1ccccc1 [2e, 4-[(2-carbamothioyl-hydrazinylidene)methyl]-3-trifluoromethyl-1,5-diphenyl-1H-pyrazole]
- SI L-M, selectivity index (Macrophages CC50/L. amazonensis IC50) [1]: 6.47
- SI L-E, selectivity index (Epithelial CC50/L. amazonensis IC50) [1]: 6.39
- IC50 [1]: 61.7 ± 2.9 µM
- melting point: 211.27 °C
- CC50 at 48 h [2]: 400 ± 6.6 µM
- CC50 at 72 h [3]: 394 ± 7.1 µM
- SI T-M, selectivity index (Macrophages CC50/T. cruzi IC50) [4]: 4.81
- SI T-E, selectivity index (Epithelial CC50/T. cruzi IC50) [4]: 4.75
- IC50 [4]: 83.1 ± 5.3 µM

SMILES: COc1ccc(-c2c(C=NNC(N)=S)c(C(F)(F)F)nn2-c2ccccc2)cc1 [2f, 4-[(2-carbamothioyl-hydrazinylidene)methyl]-3-trifluoromethyl-5-(4-methoxyphenyl)-1-phenyl-1H-pyrazole]
- SI L-M, selectivity index (Macrophages CC50/L. amazonensis IC50) [1]: 8.04
- SI L-E, selectivity index (Epithelial CC50/L. amazonensis IC50) [1]: 6.91
- IC50 [1]: 22.4 ± 3 µM
- melting point: 212.65 °C
- CC50 at 48 h [2]: 180 ± 4.7 µM
- CC50 at 72 h [3]: 155 ± 2.6 µM
- SI T-M, selectivity index (Macrophages CC50/T. cruzi IC50) [4]: 6.06
- SI T-E, selectivity index (Epithelial CC50/T. cruzi IC50) [4]: 5.21
- IC50 [4]: 29.7 ± 2.6 µM

SMILES: CSC(N)=NN=Cc1c(C(F)(F)F)nn(-c2ccccc2)c1-c1ccc([N+](=O)[O-])cc1 [3a]
- SI L-M, selectivity index (Macrophages CC50/L. amazonensis IC50) [1]: 12.10
- SI L-E, selectivity index (Epithelial CC50/L. amazonensis IC50) [1]: 9.64
- IC50 [1]: 18.3 ± 2.4 µM
- melting point: 190.7 °C
- CC50 at 48 h [2]: 221 ± 3.1 µM
- CC50 at 72 h [3]: 176 ± 5.9 µM
- SI T-M, selectivity index (Macrophages CC50/T. cruzi IC50) [4]: 9.19
- SI T-E, selectivity index (Epithelial CC50/T. cruzi IC50) [4]: 7.32
- IC50 [4]: 24.1 ± 0.8 µM
